Laboratory results taken from patent US7973055B2, “Crystalline forms of a biphenyl compound” (Theravance, Inc., priority 2006, dated 2011).
Structures can show the parent of a compound that is named as a salt.

Assays:
[1] = Dynamic moisture sorption (DMS) assessment; type: physicochemical; settings: for weight gain when exposed to up to 90% relative humidity / level of hygroscopicity: DMS; for weight gain when exposed to up to 90% relative humidity: up to 90% RH; for deliquescence: exposed to up to 90% relative humidity
Description: A dynamic moisture sorption (DMS) assessment (also known as a moisture sorption-desorption profile) was performed for samples of a crystalline hemiedisylate (prepared as described in Example 2) and a heminapadisylate (prepared as described in Example 5) salt using a VTI atmospheric microbalance, SGA-100 system (VTI Corp., Hialeah, Fla. 33016). A sample size of approximately 10 mg was used and the humidity was set at the ambient value at the start of the analysis. A typical DMS analysis consisted of three scans: ambient to 2% relative humidity (RH), 2% RH to 90% RH, 90% RH to 5% RH at a scan rate of 5% RH/step. The mass was measured every two minutes and the RH was changed stepwise to the next value (+/−5% RH) when the mass of the sample was stable to within 0.02% for 5 consecutive points.

[2] = 5° C./min
Description: Differential scanning calorimetry (DSC) was performed using a TA Instruments Model Q-10 module with a Thermal Analyst controller. Data were collected and analyzed using TA Instruments Thermal Solutions software. A sample of about 1 mg was accurately weighed into an aluminum pan with lid. The sample was evaluated using a linear heating ramp of 5° C./min from ambient temperature to approximately 300° C. The DSC cell was purged with dry nitrogen during use.

[3] = Solid state stability assessment (HPLC); settings: about 1 month at 40° C. and 75% RH
Description: These stock solutions were diluted to 1 mg/mL in 10% ACN for injection onto the HPLC.

[4] = 0.2 mg/mL freebase equivalents in 10 mM citrate buffered normal saline, pH 4.5; one month at 40° C./75% RH
Description: A solution was prepared with 0.2 mg/mL freebase equivalents (using a crystalline heminapadisylate salt prepared as described in Example 5) in 10 mM citrate buffered normal saline, pH 4.5. Less than 0.5% degradation was observed after storage for one month at 40° C./75% RH.

Row | Compound | weight gain when exposed to up to 90% relative humidity [1] | no thermal decomposition below (DSC trace) [2] [°C] | also measured
1 | CN(CCN1CCC(OC(=O)Nc2ccccc2-c2ccccc2)CC1)C(=O)c1cccc(C(=O)NCCNCc2ccc(O)cc2)c1 [crystalline diacetate salt] | less than 18% |  | 
2 | CN(CCN1CCC(OC(=O)Nc2ccccc2-c2ccccc2)CC1)C(=O)c1cccc(C(=O)NCCNCc2ccc(O)cc2)c1 [crystalline dipropionate salt] | less than 11% |  | 
3 | CN(CCN1CCC(OC(=O)Nc2ccccc2-c2ccccc2)CC1)C(=O)c1cccc(C(=O)NCCNCc2ccc(O)cc2)c1 [crystalline freebase (Form I), Crystalline Freebase Biphenyl-2-ylcarbamic Acid 1-[2-({3-[2-(4-Hydroxybenzylamino)ethylcarbamoyl]benzoyl}methylamino)ethyl]piperidin-4-yl Ester (Form I)] |  | ≥ 95 | 
4 | CN(CCN1CCC(OC(=O)Nc2ccccc2-c2ccccc2)CC1)C(=O)c1cccc(C(=O)NCCNCc2ccc(O)cc2)c1 [crystalline freebase (Form II), Crystalline Freebase Biphenyl-2-ylcarbamic Acid 1-[2-({3-[2-(4-Hydroxybenzylamino)ethylcarbamoyl]benzoyl}methylamino)ethyl]piperidin-4-yl Ester (Form II)] |  | ≥ 110 | 
5 | CN(CCN1CCC(OC(=O)Nc2ccccc2-c2ccccc2)CC1)C(=O)c1cccc(C(=O)NCCNCc2ccc(O)cc2)c1.CN(CCN1CCC(OC(=O)Nc2ccccc2-c2ccccc2)CC1)C(=O)c1cccc(C(=O)NCCNCc2ccc(O)cc2)c1.O=S(=O)(O)CCS(=O)(=O)O [crystalline hemiedisylate salt, Crystalline Hemiedisylate Salt of Biphenyl-2-ylcarbamic Acid 1-[2-({3-[2-(4-Hydroxybenzylamino)ethylcarbamoyl]benzoyl}methylamino)ethyl]piperidin-4-yl Ester] | less than 4% | ≥ 190 | level of hygroscopicity [1]: moderate and low; deliquescence [1]: not deliquescent
6 | CN(CCN1CCC(OC(=O)Nc2ccccc2-c2ccccc2)CC1)C(=O)c1cccc(C(=O)NCCNCc2ccc(O)cc2)c1.CN(CCN1CCC(OC(=O)Nc2ccccc2-c2ccccc2)CC1)C(=O)c1cccc(C(=O)NCCNCc2ccc(O)cc2)c1.O=S(=O)(O)c1cccc2c(S(=O)(=O)O)cccc12 [crystalline heminapadisylate salt, Crystalline Heminapadisylate Salt of Biphenyl-2-ylcarbamic Acid 1-[2-({3-[2-(4-Hydroxybenzylamino)ethylcarbamoyl]benzoyl}methylamino)ethyl]piperidin-4-yl Ester] | less than 2% | ≥ 220 | weight gain in the humidity range of 40-75% RH ([1]; 40-75% RH): 0.46%; level of hygroscopicity [1]: low; deliquescence [1]: not deliquescent; chemical degradation by HPLC after storage [3]: less than 0.5%; degradation of inhalation solution after storage [4]: Less than 0.5%
7 | CN(CCN1CCC(OC(=O)Nc2ccccc2-c2ccccc2)CC1)C(=O)c1cccc(C(=O)NCCNCc2ccc(O)cc2)c1 [crystalline monooxalate salt] | less than 14% |  | 
